Results on 26 compounds are retold here after US10703756B2, “Pyrrolo[2,3-D]pyrimidinyl, pyrrolo[2,3-B]pyrazinyl, pyrrolo[2,3-B]pyridinyl acrylamides and epoxides thereof” (Pfizer Inc., priority 2015, dated 2020).

The structures appear in SMILES notation.

The target in assay [1] is T1, JAK3 enzyme (Homo sapiens, UniProt P52333).
T1 sequence (P52333 1-1124): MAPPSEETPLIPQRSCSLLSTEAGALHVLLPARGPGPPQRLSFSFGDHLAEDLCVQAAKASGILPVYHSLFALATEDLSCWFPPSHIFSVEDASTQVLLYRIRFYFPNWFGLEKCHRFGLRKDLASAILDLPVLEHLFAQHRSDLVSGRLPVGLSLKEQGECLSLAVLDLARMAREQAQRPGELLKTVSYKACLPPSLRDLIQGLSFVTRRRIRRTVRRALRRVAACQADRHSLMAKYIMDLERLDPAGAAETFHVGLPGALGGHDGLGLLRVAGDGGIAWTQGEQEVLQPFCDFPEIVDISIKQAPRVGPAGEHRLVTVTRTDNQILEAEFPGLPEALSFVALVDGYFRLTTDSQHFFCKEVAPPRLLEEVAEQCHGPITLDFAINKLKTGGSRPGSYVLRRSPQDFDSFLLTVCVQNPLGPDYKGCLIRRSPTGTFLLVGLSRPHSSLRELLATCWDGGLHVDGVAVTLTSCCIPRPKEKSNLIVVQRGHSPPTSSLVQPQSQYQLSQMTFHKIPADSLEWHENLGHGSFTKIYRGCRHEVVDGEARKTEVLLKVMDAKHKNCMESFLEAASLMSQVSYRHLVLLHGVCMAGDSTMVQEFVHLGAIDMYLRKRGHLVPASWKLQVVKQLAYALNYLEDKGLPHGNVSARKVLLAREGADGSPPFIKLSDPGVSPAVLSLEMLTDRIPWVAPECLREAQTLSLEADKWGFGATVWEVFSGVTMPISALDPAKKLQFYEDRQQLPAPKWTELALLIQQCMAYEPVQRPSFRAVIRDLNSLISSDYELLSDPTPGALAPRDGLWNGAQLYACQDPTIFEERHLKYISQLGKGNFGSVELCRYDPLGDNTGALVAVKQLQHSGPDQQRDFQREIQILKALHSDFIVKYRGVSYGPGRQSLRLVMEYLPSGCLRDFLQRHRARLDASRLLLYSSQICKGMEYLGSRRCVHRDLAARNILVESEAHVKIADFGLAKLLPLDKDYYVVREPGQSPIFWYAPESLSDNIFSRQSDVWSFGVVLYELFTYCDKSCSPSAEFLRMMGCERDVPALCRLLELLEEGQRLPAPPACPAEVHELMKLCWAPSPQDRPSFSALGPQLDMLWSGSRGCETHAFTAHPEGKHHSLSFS
In words: JAK Caliper Enzyme Assay at 1 mM ATP. Type of assay: biochemical. In short, it runs like this: (§1)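 Read-out: microfluidic mobility-shift separation quantifying substrate peptide versus phosphopeptide. Compounds were tested as 11-point half-log dilutions, top 600 μM in DMSO before transfer. Enzyme level and reaction time were tuned for each prep so conversion stayed at 20%-30%.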

The target of assay [2] is T1, JAK3 enzyme. In words: JAK Caliper Enzyme Assay at 4 μM ATP. Type of assay: biochemical. In short, it runs like this: as §1

For the compound `C=CC(=O)N1C[C@H](Nc2ncnc3[nH]ccc23)CC[C@@H]1CNC(C)=O` (racemic) [Example 88, rac-N-(((2R,5R)-5-((7H-pyrrolo[2,3-d]pyrimidin-4-yl)amino)-1-acryloylpiperidin-2-yl)methyl)acetamide], the half-maximal inhibitory concentration (IC50) in assay [1] was determined as 137 nM; in assay [2], 1.5 nM.
Taken in the same sequence, the figures for `C=CC(=O)N1CCC(Oc2cnc3[nH]cc(C(=O)NC(C)(C)CC)c3n2)CC1` [Example 209, 2-[(1-acryloylpiperidin-4-yl)oxy]-N-(2-methylbutan-2-yl)-5H-pyrrolo[2,3-b]pyrazine-7-carboxamide] were 64 nM and 0.609 nM.
Taken in the same sequence, the figures for `C=CC(=O)N1CC[C@H](Nc2cnc3[nH]cc(C(=O)NCC)c3n2)C[C@H]1C` (single isomer, unassigned) [Example 41] were 22 nM and 0.159 nM.
`C=CC(=O)N(C)C1CN(c2cnc3[nH]cc(C(=O)N[C@H](C)COC)c3n2)C1` [Example 86, 2-{3-[acryloyl(methyl)amino]azetidin-1-yl}-N-[(2R)-1-methoxypropan-2-yl]-5H-pyrrolo[2,3-b]pyrazine-7-carboxamide]: the IC50 turned out to be 94 nM in assay [1] and 0.515 nM in assay [2].
For the compound `C=CC(=O)N1CCC(Nc2cnc3[nH]cc(C(=O)NCc4cccc(F)c4)c3n2)CC1` [Example 176, 2-[(1-acryloylpiperidin-4-yl)amino]-N-(3-fluorobenzyl)-5H-pyrrolo[2,3-b]pyrazine-7-carboxamide], the IC50 in assay [1] amounted to 3 nM; in assay [2], 0.437 nM.
Taken in the same sequence, the figures for `C=CC(=O)N1CCN(c2cnc3[nH]cc(C(=O)NCC(C)C)c3n2)C[C@@H]1CC(C)C` [Example 288, 2-[(3S)-4-acryloyl-3-(2-methylpropyl)piperazin-1-yl]-N-(2-methylpropyl)-5H-pyrrolo[2,3-b]pyrazine-7-carboxamide] were 57 nM and 0.376 nM.
Taken in the same sequence, the figures for `C=CC(=O)N1CCC(Oc2cnc3[nH]cc(C(=O)N[C@@H]4CCC[C@H]4F)c3n2)CC1` [Example 229, 2-[(1-acryloylpiperidin-4-yl)oxy]-N-[(1R,2R)-2-fluorocyclopentyl]-5H-pyrrolo[2,3-b]pyrazine-7-carboxamide] were 60 nM and 0.582 nM.
Turning to `C=CC(=O)N1CCC(Oc2cnc3[nH]cc(C(=O)NC45CC(C4)C5)c3n2)CC1` [Example 200, 2-[(1-acryloylpiperidin-4-yl)oxy]-N-(bicyclo[1.1.1]pent-1-yl)-5H-pyrrolo[2,3-b]pyrazine-7-carboxamide], the IC50 is 46 nM in assay [1] and 0.411 nM in assay [2].
On to `C=CC(=O)N1C[C@H](CN2CC[C@H](C#N)C2)C[C@H](Nc2ncnc3[nH]ccc23)C1` [Example 108, (S)-1-(((3S,5S)-5-((7H-pyrrolo[2,3-d]pyrimidin-4-yl)amino)-1-acryloylpiperidin-3-yl)methyl)pyrrolidine-3-carbonitrile], for which the figures for the IC50 in assay [1] and in assay [2] were 136 nM and 0.769 nM, respectively.
Taken in the same sequence, the figures for `C=CC(=O)N1CCC(Nc2cnc3[nH]cc(C(=O)NCc4ccccc4)c3n2)CC1` [Example 187, 2-[(1-acryloylpiperidin-4-yl)amino]-N-benzyl-5H-pyrrolo[2,3-b]pyrazine-7-carboxamide] were 6 nM and 0.503 nM.
Taken in the same sequence, the figures for `C=CC(=O)N1C[C@@H](CC#N)C[C@@H](Nc2ncnc3[nH]ccc23)C1` (single isomer, unassigned) [Example 106] were 25 nM and 0.125 nM.
Taken in the same sequence, the figures for `C=CC(=O)N1CC[C@H](Nc2cnc3[nH]cc(C(=O)NCC)c3n2)[C@H](OC)C1` [Example 326, 2-{[(3R,4S)-1-acryloyl-3-methoxypiperidin-4-yl]amino}-N-ethyl-5H-pyrrolo[2,3-b]pyrazine-7-carboxamide] were 50 nM and 0.455 nM.
For the compound `C=CC(=O)N1CCC(Oc2cnc3[nH]cc(C(=O)N[C@@H]4CCC[C@@H]4F)c3n2)CC1` [Example 230, 2-[(1-acryloylpiperidin-4-yl)oxy]-N-[(1R,2S)-2-fluorocyclopentyl]-5H-pyrrolo[2,3-b]pyrazine-7-carboxamide], the half-maximal inhibitory concentration (IC50) in assay [1] stood at 34 nM; in assay [2] it was 0.305 nM.
Consider `C=CC(=O)N1CC[C@@H](Nc2cnc3[nH]cc(C(=O)NCC)c3n2)[C@H](C)C1` (single isomer, unassigned) [Example 44], for which the half-maximal inhibitory concentration (IC50) is 47 nM in assay [1] and 0.35 nM in assay [2].
With `C=CC(=O)N1C[C@@H](CF)C[C@@H](Nc2ncnc3[nH]ccc23)C1` (single isomer, unassigned) [Example 103], the IC50 in assay [1] was 38 nM; in assay [2] it was 0.424 nM.
Taken in the same sequence, the figures for `C=CC(=O)N1CCC(Nc2cnc3[nH]cc(C(=O)NCc4ccc(F)cc4)c3n2)CC1` [Example 188, 2-[(1-acryloylpiperidin-4-yl)amino]-N-(4-fluorobenzyl)-5H-pyrrolo[2,3-b]pyrazine-7-carboxamide] were 6 nM and 0.515 nM.
Taken in the same sequence, the figures for `C=CC(=O)N1CC[C@H](Nc2cnc3[nH]cc(C(=O)NCCCC(F)(F)F)c3n2)[C@H](OC)C1` [Example 319, 2-{[(3R,4S)-1-acryloyl-3-methoxypiperidin-4-yl]amino}-N-(4,4,4-trifluorobutyl)-5H-pyrrolo[2,3-b]pyrazine-7-carboxamide] were 45 nM and 0.404 nM.
`C=CC(=O)N1CCN(c2cnc3[nH]cc(C(=O)N[C@H](CC)CC#N)c3n2)C[C@@H]1CC(C)C` [Example 314, 2-[(3S)-4-acryloyl-3-(2-methylpropyl)piperazin-1-yl]-N-[(2R)-1-cyanobutan-2-yl]-5H-pyrrolo[2,3-b]pyrazine-7-carboxamide]: the IC50 in assay [1] was determined as 30 nM; in assay [2] it was 0.24 nM.
On to `C=CC(=O)N1CC[C@H](Nc2cnc3[nH]cc(C(=O)NCC(C)CC(F)(F)F)c3n2)[C@H](OC)C1` (mixture of isomers) [Example 328, Racemic-2-{[(3R,4S)-1-acryloyl-3-methoxypiperidin-4-yl]amino}-N-(4,4,4-trifluoro-2-methylbutyl)-5H-pyrrolo[2,3-b]pyrazine-7-carboxamide], for which the half-inhibitory concentration (IC50) worked out at 37 nM in assay [1] and 0.578 nM in assay [2].
Regarding `C=CC(=O)N1CC[C@@H](Nc2cnc3[nH]cc(C(=O)NCC(C)(F)F)c3n2)[C@@H](OC)C1` [Example 321, 2-{[(3S,4R)-1-acryloyl-3-methoxypiperidin-4-yl]amino}-N-(2,2-difluoropropyl)-5H-pyrrolo[2,3-b]pyrazine-7-carboxamide], the results for the IC50 in assay [1] and in assay [2] were 46 nM and 0.448 nM, respectively.
Taken in the same sequence, the figures for `C=CC(=O)N1CCN(c2cnc3[nH]cc(C(=O)N[C@H](C)COC)c3n2)CC1` [Example 332] were 22 nM and 0.262 nM.
Taken in the same sequence, the figures for `C=CC(=O)N1CC[C@@H](Oc2cnc3[nH]cc(C(=O)NCC)c3n2)C[C@@H]1C` (racemic) [Example 77, Trans-racemic-2-{[1-acryloyl-2-methylpiperidin-4-yl]oxy}-N-ethyl-5H-pyrrolo[2,3-b]pyrazine-7-carboxamide] were 115 nM and 0.702 nM.
`C=CC(=O)N1CCC(Oc2cnc3[nH]cc(C(=O)N[C@H](C)CC)c3n2)CC1` [Example 227, 2-[(1-acryloylpiperidin-4-yl)oxy]-N-[(2R)-butan-2-yl]-5H-pyrrolo[2,3-b]pyrazine-7-carboxamide]: the IC50 was 22 nM in assay [1] and 0.279 nM in assay [2].
As to `C=CC(=O)N1CCC(Oc2cnc3[nH]cc(C(=O)N[C@H](C)COC)c3n2)CC1` [Example 214, 2-[(1-acryloylpiperidin-4-yl)oxy]-N-[(2R)-1-methoxypropan-2-yl]-5H-pyrrolo[2,3-b]pyrazine-7-carboxamide], the half-inhibitory concentration (IC50) is 20 nM in assay [1] and 0.209 nM in assay [2].
Taken in the same sequence, the figures for `C=CC(=O)N1CCC(Oc2cnc3[nH]cc(C(=O)NC4CCCC4)c3n2)CC1` (racemic) [Example 204, Racemic-2-[(1-acryloylpiperidin-4-yl)oxy]-N-cyclopentyl-5H-pyrrolo[2,3-b]pyrazine-7-carboxamide] were 49 nM and 0.272 nM.
Taken in the same sequence, the figures for `C=CC(=O)N1CCC[C@H](Nc2cnc3[nH]cc(C(=O)NCC)c3n2)C1` (single isomer, unassigned) [Example 36] were 54 nM and 0.875 nM.

In general, IC50 refers to the midpoint of a concentration-inhibition curve. High values mean lower potency, low ones higher potency.
